Measured values: the SangsterLogP compilation

How the values were obtained:
[1] = method code SF-AS, from DOI: 10.1016/s0022-5347(24)07568-2, PMID: 4149453; conditions: pH 7.5
[2] = not given; remark: listed apart in the source
[3] = method code SF, from PMID: 26783178
[4] = not given; remark: listed apart in the source
[5] = method code SF-AS, from DOI: 10.1002/qua.560100722
[6] = not given; remark: listed apart in the source
[7] = method code SF-AS, from DOI: 10.1016/0006-2952(90)90117-4, PMID: 2344368; conditions: pH 7.5
[8] = not given; remark: listed apart in the source
[9] = method code SF-AS, from DOI: 10.1016/0378-5173(85)90003-1
[10] = pH 7.4
[11] = method code SF-RC, from DOI: 10.1016/j.bmc.2006.11.022, PMID: 17293116; conditions: pH 7.4
[12] = method code SF-HPLC, from DOI: 10.1016/j.ejmech.2003.12.002, PMID: 15051170
[13] = method code SF-AS, from DOI: 10.1016/j.arabjc.2011.11.013
[14] = method code SF, from DOI: 10.1002/ps.2780350215
[15] = not given; remark: listed apart in the source
[16] = method code SF, from DOI: 10.1016/0378-5173(85)90077-8
[17] = not given; remark: listed apart in the source
[18] = method code SF-HPLC, from DOI: 10.1023/a:1015956705293, PMID: 3244625
[19] = method code SF-HPLC, from DOI: 10.1023/a:1016359301852, PMID: 24271710
[20] = not given; remark: listed apart in the source

CCCCCCCCOC(=O)CCC(NC(=O)c1ccc(N(C)Cc2cnc3nc(N)nc(N)c3n2)cc1)C(=O)OCCCCCCCC (configuration not stated)
logD [1]: 2.16

Cc1cn2c(n1)C1CC(c3ccccc3)CCC1C(C(=O)N(C)C)=C2 (configuration not stated)
logP: 2.77

CC(C)N1C=CCC(C(=O)OC2CCC3C4CCc5cc(O)ccc5C4CC23C)=C1 (configuration not stated)
logP [2]: 4.6

Cc1ccc(N2C(=O)C(CCCNS(=O)(=O)c3ccc(OC(F)(F)F)cc3)C2c2ccc(NS(C)(=O)=O)cc2)cc1 (configuration not stated)
logP [3]: 3.45

Cc1ccc(C(=O)CCCN2CCC(O)(c3ccc(Cl)cc3)CC2)cc1
logP [4]: 3.44

COc1cccc2c1C(=O)c1c(O)c3c(c(O)c1C2=O)CC(O)(C(C)=O)CC3OC1CC(NC(=O)CN(C)C)C(O)C(C)O1 (configuration not stated)
logD ([5]; pH 7.8): 1.26

CCCCOc1cc(C(=O)NCCN(CC)CC)c2ccccc2n1
logP [6]: 4.19

COc1cccc2c1C(=O)c1c(O)c3c(c(O)c1C2=O)CC(O)(C(C)=O)CC3OC1CC(O)C(O)C(C)O1 (configuration not stated)
logD [7]: 1.34

O=C(Nc1ccc2ncnc(Nc3ccc(F)c(Cl)c3)c2c1)c1ccc(F)cc1
logP [8]: 4.55

CC(=O)OCC1=C(C(=O)OCOC(=O)C(C)(C)C)N2C(=O)C(NC(=O)Cc3cccs3)C2SC1 (configuration not stated)
logD ([9]; pH 4.6): 1.57

CCCCCOC(=O)CC[C@H](NC(=O)c1ccc(N(C)Cc2cnc3nc(N)nc(N)c3n2)cc1)C(=O)OCCCCC
logD [1]: 1.33

CN1C=CCC(C(=O)O[C@H]2CC[C@H]3[C@@H]4CCc5cc(O)ccc5[C@H]4CC[C@]23C)=C1
logP [2]: 4.52

C[C@]12C=CC(=O)C=C1CC[C@@H]1[C@@H]2[C@@H](O)C[C@@]2(C)[C@H]1CC[C@]2(O)[C@@H](O)C(=O)NCc1ccccc1
logD [10]: 1.51

COc1cccc2c1C(=O)c1c(O)c3c(c(O)c1C2=O)CC(O)(C(C)=O)CC3OC1CC(NC(C)=O)C(O)C(C)O1 (configuration not stated)
logD [7]: 1.85

O=C(Nc1ccc2ncnc(Nc3ccc(F)c(Cl)c3)c2c1)c1cccc(I)c1
logP [8]: 5.58

CN(C)c1ccc(-c2nc3ccc(-c4nc5ccc(F)cc5s4)cc3s2)cc1
logD [11]: 2.99

CC1CN(C2C=CC(COP(=O)(NC(C)C(=O)O)Oc3ccc(Br)cc3Cl)O2)C(=O)NC1=O (configuration not stated)
logP [12]: 1.81

O=C(CNc1ccc(O)cc1)Nc1ccc(Cl)cc1C(=O)c1ccccc1
logP [13]: 3.5

Cc1cc(=O)c(C(=O)Nc2ccccc2)c(C)n1CCc1ccccc1
logP [14]: 2.04

CCc1cccc(CC)c1NC(=O)c1c(C)n(Cc2ccccc2)c(C)cc1=O
logP [14]: 2.9

Cc1cccc2c1OP(=O)(OCC1OC(n3cc(/C=C/Br)c(=O)[nH]c3=O)CC1OC(=O)C1CCCN1)OC2 (configuration not stated)
logP [15]: -0.4

CCCCCC(=O)OCC(=O)[C@@]1(O)CC[C@H]2[C@@H]3CCC4=CC(=O)CC[C@]4(C)[C@H]3C(=O)C[C@@]21C
logP [16]: 3.3

C[C@@H]1CC2=CC(=O)CC[C@@H]2[C@H]2CC[C@@]3(C)[C@@H](CC[C@]3(C)O)[C@@H]21
logP [17]: 3.19

CNc1ccc(-c2nc3ccc(-c4nc5ccccc5s4)cc3s2)cc1
logD [11]: 2.34

C[C@]12CCC(=O)C=C1CC[C@@H]1[C@@H]2[C@@H](O)C[C@@]2(C)[C@H]1CC[C@]2(O)C(=O)COC(=O)CCC(N)=O
logP [18]: 1.43

C#C[C@]1(O)CC[C@H]2[C@@H]3CCC4=CC(=O)CC[C@@H]4[C@H]3CC[C@@]21C
logP [19]: 2.97

NC(=O)c1ccc2c(ccn2CC(=O)Oc2ccc(-c3ccccc3)cc2)c1
logP [20]: 2.4

C#CC1(OC(=O)c2ccn(C)c2)CCC2C3CCC4=CC(=O)CCC4(C)C3CCC21C (configuration not stated)
logP [19]: 4.49

COc1cccc2c1C(=O)c1c(O)c3c(c(O)c1C2=O)C[C@@](O)(C(C)=NNC(=O)c1ccccc1)C[C@@H]3O[C@H]1C[C@H](N)[C@H](O)[C@H](C)O1
logD ([5]; pH 8.8): 0.76

Cc1cc(=O)c(C(=O)Nc2ccccc2Cl)c(C)n1CCc1ccccc1
logP [14]: 2.79

C[C@@H]1C[C@@]2(C)[C@@H](CC[C@@H]3[C@@H]2CC[C@]2(C)[C@@H](O)CC[C@@H]32)CC1=O
logP [17]: 3.99

COC(=O)C(C)NP(=O)(OCC1C=CC(n2cc(C)c(=O)[nH]c2=O)O1)Oc1c(OC)cccc1OC (configuration not stated)
logP [12]: 0.4

COC(=O)CCC(NC(=O)c1ccc(N(C)Cc2cnc3nc(N)nc(N)c3n2)cc1)C(=O)OC (configuration not stated)
logD [1]: 0.54

Cc1cccc2c1OP(=O)(OCC1OC(n3cc(C=CBr)c(=O)[nH]c3=O)CC1OC(=O)C(C)C)OC2 (configuration not stated)
logP [15]: 2.4

COc1ccc(C(=O)CCCN2CCC(O)(c3ccc(Cl)cc3)CC2)cc1
logP [4]: 2.9

O=C(Cn1ccc2cc(C(=O)O)ccc21)Oc1ccccc1-c1ccccc1
logP [20]: 3.1

CC1N=C2C3=C(CCC(c4ccccc4)C3)C(C(N)=O)=CN2C1C (configuration not stated)
logP: 3.21

COC(=O)CCCCCC(=O)OCC(=O)C1(O)CCC2C3CCC4=CC(=O)CCC4(C)C3C(O)CC21C (configuration not stated)
logP [18]: 3.7

O=C(CNc1ccccc1)Nc1ccc(Cl)cc1C(=O)c1ccccc1
logP [13]: 4.24

C[C@]12CCC(=O)C=C1CC[C@@H]1[C@@H]2[C@@H](O)C[C@@]2(C)[C@H]1CC[C@]2(O)C(=O)COC(=O)CCCCCC(N)=O
logP [18]: 2.3

Cc1ccc(N2C(=O)[C@H](CCCNS(=O)(=O)c3ccc(OC(F)(F)F)cc3)[C@H]2c2ccc(NS(=O)(=O)c3ccc(C)cc3)cc2)cc1
logP [3]: 3.78

COC(=O)C(C)NP(=O)(OCC1C=CC(n2cc(C)c(=O)[nH]c2=O)O1)Oc1ccccc1Br (configuration not stated)
logP [12]: 0.95

C=CCCN1C=CCC(C(=O)OC2CCC3C4CCc5cc(O)ccc5C4CC23C)=C1 (configuration not stated)
logP [2]: 3.96

CCCCCCCC(=O)OCC(=O)[C@@]1(O)CC[C@H]2[C@@H]3CCC4=CC(=O)CC[C@]4(C)[C@H]3[C@@H](O)C[C@@]21C
logP [16]: 4.37

CCCCCC(=O)OCC(=O)[C@@]1(O)CC[C@H]2[C@@H]3CCC4=CC(=O)CC[C@]4(C)[C@H]3[C@@H](O)C[C@@]21C
logP [16]: 3.7

CNc1ccc(-c2nc3ccc(-c4nc5ccc(Cl)cc5s4)cc3s2)cc1
logD [11]: 3.05

C#CC1(O)CC[C@H]2[C@@H]3CCC4=CC(=O)CC[C@]4(C)[C@H]3CC[C@@]21C (stereo in doubt)
logP [19]: 3.11

COc1cccc2c1C(=O)c1c(O)c3c(c(O)c1C2=O)C[C@@](O)(C(C)=O)C[C@@H]3O[C@@H]1C[C@@H](N(C)C)[C@@H](O)[C@@H](C)O1
logD [7]: 1.37

CC(CCN1CCC(O)(c2ccc(Cl)cc2)CC1)c1ccc(F)cc1 (configuration not stated)
logP [4]: 4.02

Cn1nnnc1SCC1=C(C(=O)OCOC(=O)C(C)(C)C)N2C(=O)C(NC(=O)Cc3csc(N)n3)C2SC1 (configuration not stated)
logD ([9]; pH 4.6): 1.36

Fc1ccc(C(c2ccc(F)cc2)N2CCN(C/C=C/c3ccccc3)CC2)cc1
logP [6]: 4.83

CC1N=C2C3=C(CCC(c4ccccc4)C3)C(C(=O)NCCO)=CN2C1C (configuration not stated)
logP: 2.81

CCCCCCCCc1ccc(OC(=O)Cn2ccc3cc(C(=O)O)ccc32)cc1
logP [20]: 6.3

CCc1ccc(S(=O)(=O)NCCC[C@H]2C(=O)N(c3ccc(C)cc3)[C@@H]2c2ccc(NS(=O)(=O)c3ccc(C)cc3)cc2)cc1
logP [3]: 3.9

Nc1ccc(C(=O)OCC(=O)Nc2ccc(Cl)cc2C(=O)c2ccccc2)cc1
logP [13]: 4.78

O=C(Nc1ccc2ncnc(Nc3ccc(F)c(Cl)c3)c2c1)c1ccc(I)cc1
logP [8]: 4.83

CO[C@H]1CC[C@H]2[C@@H]3CC[C@H]4CC(=O)[C@H](C)C[C@]4(C)[C@H]3CC[C@]12C
logP [17]: 5.43

Cn1nnnc1SCC1=C(C(=O)OCOC(=O)C(C)(C)C)N2C(=O)C(NC(=O)C(O)c3ccccc3)C2SC1 (configuration not stated)
logD ([9]; pH 4.5): 0.85

CNC(=O)C(O)C1(O)CCC2C3CCC4=CC(=O)C=CC4(C)C3C(O)CC21C (configuration not stated)
logD [10]: 1

COc1ccc(CN2CCN(c3ccccc3)CC2)c(OC)c1OC
logP [6]: 3

Cc1cccc2c1OP(=O)(OCC1OC(n3cc(/C=C/Br)c(=O)[nH]c3=O)CC1OC(=O)C(N)C(C)C)OC2 (configuration not stated)
logP [15]: -0.1

CCCNC(=O)[C@H](O)[C@@]1(O)CC[C@H]2[C@@H]3CCC4=CC(=O)C=C[C@]4(C)[C@H]3[C@@H](O)C[C@@]21C
logD [10]: 1.43
